According to BindingDB's records for doi:10.1021/acs.jmedchem.9b01348 (West China Hospital of Sichuan University, 2019):

Test: Inhibition of JAK2 V617F mutant in BAF3 cells assessed as reduction in cell growth measured after 72 hrs by MTT assay

- IC50: 1060 nM
SMILES: C1=C/COCc2cc(ccc2OCCN2CCCC2)Nc2nccc(n2)-c2cccc(c2)COC/1 [ONX-0803]
